Laboratory results published in patent US6777435B1, “Crystals of an oxyiminoalkanoic acid derivative and their use as antidiabetics” (Takeda Chemical Industries, Ltd., priority 1999, dated 2004).

Legend:
Wistar fatty rats = test: Hypoglycemic and hypolipidemic actions in rats; assay type: in vivo; conditions: 1 mg/kg/day orally for seven days, percentage reduction compared with non-treatment group
Experimental: Crystals of the test compound were suspended in an amount of 1 mg/5 ml in a 0.5% methyl cellulose solution and compulsorily administered orally at the dose of 1 mg/kg/day to Wistar fatty rats (27-30 weeks old; five rats in a group), a model of obesity and type 2 diabetes mellitus, for seven days successively. During that period, diet and water were given freely. Blood was sampled from tail vein and measurement of the components was carried out using serum. Glucose was quantified using L-type Wako Glu2 (Wako Pure Chemicals) while triglyceride was quantified using L-type Wako TG.H (Wako Pure Chemical). The value of treatment group is represented as percentage reduction compared with the non-treatmet group.

KKA^γ mice = test: Hypoglycemic and hypolipidemic actions in mice; assay type: in vivo; conditions: 0.01% in powdery diet for four days, percentage reduction compared with non-treatment group
Experimental: Crystals of the test compound were mixed in a powdery diet (CE-2; Japan Clea) at a concentration of 0.01%, and freely given to KKA^γ mice (11 weeks old; five mice in a group), a model of obesity and type 2 diabetes mellitus, for four days. During that period, water was given freely. Blood was sampled from orbital venous plexus and measurement of the components was carried out using serum. Glucose was quantified using L-type Wako Glu2 (Wako Pure Chemicals) while triglyceride was quantified using Iatro-MA701 TG kit (Iatron Laboratories Inc.). The value of treatment group is represented as percentage reduction compared with the non-treatmet group.

Row | SMILES | Hypoglycemic Action (%) (Wistar fatty rats; serum glucose) | Hypolipemic Action (%) (Wistar fatty rats; serum triglyceride) | Hypoglycemic Action (%) (KKA^γ mice; serum glucose) | Hypolipemic Action (%) (KKA^γ mice; serum triglyceride)
1 | Cc1oc(-c2ccccc2)nc1COc1ccc(CO/N=C(\CCC(=O)O)c2ccccc2)cc1 [Crystals of Example 1, (E)-4-[4-(5-methyl-2-phenyl-4-oxazolylmethoxy)benzyloxyimino]-4-phenylbutyric acid] | 60% | 85% |  | 
2 | Cc1oc(-c2ccccc2)nc1COc1ccc(CO/N=C(\CCC(=O)O)c2ccccc2)cc1 [Crystals of Reference Example 4, (E)-4-[4-(5-methyl-2-phenyl-4-oxazolylmethoxy)benzyloxyimino]-4-phenylbutyric acid] |  |  | 42% | 61%
